The source of these data is patent EP0532759A1, “NOVEL ALLYL ALCOHOL DERIVATIVE” (TSUMURA & CO., priority 1991, dated 1992).

Where two headings read alike, the source gives them in different places. Marks after values point to notes of the source that are not given here.

One series has as its system balb/c 3T3 cells. As to the kind of experiment: Inhibition of EGF-accelerated fibroblast growth (3H-thymidine incorporation). To be noted: 0.5 µg per hole compound, 50 pg per hole mouse EGF. The class given is cell-based. The method, then: A culture solution (hereinafter referred to as "CS DMEM") containing 10 % calf serum adjusted in such a manner that fibroblast (balb/c 3T3 cells) was contained in a concentration of 2.5 x 10⁴ cells per 0.5 ml was incubated on a 24-hole plate in an amount of 1 ml per hole. After the fibroblast was saturated in a monolayer state, cultivation was conducted at 37°C for 12 hr in 1% CS DMEM instead of the above medium through the use of 5 % CO₂. 0.5 µg per hole of the compound of the present invention and 50 pg per hole of mouse EGF were added thereto, and the cultivation was further conducted for 16 hr. ³H-thymidine in an amount of 0.5 µCi/50 µl/well was added thereto, and the mixture was cultivated for 8 hr. Then, the culture solution was removed, and washing was conducted with a cooled isotonic phosphate buffer. A 5 % cold trichloroacetic acid was added thereto, and the mixture was allowed to stand for 30 min. The supernatant was removed, and the residue was dissolved in a 0.5 M sodium hydroxide solution. The solution was neutralized with 0.5 M hydrochloric acid, a scintillation cocktail was added thereto, and counting was conducted by means of a liquid scintillation counter. The radioactivity of ³H-thymidine incorporated into the cells accompanying the growth was measured to study the function of the novel allyl alcohol on the growth of the cell.
On the technique in general: Incorporation of labelled thymidine or its analogues reports DNA synthesis.

A further series concerns rat. In words: Analgesic activity test (Randall-Selitto method, Brewer's yeast). The class given is in vivo. The method, then:
Experimental was made with "Randall-Selitto" analgesic effect measuring apparatus (manufactured by Ugo Basile in Italy), pressure was applied through a pressure terminal, and the pressure (g) applied at the time showing a wriggling motion in rat was measured as a threshold value for pain. The threshold value for pain was measured for each leg, and rats showing substantially the same degree of threshold value for pain were selected and used for the experiment. A 20 % aqueous Brewer's yeast solution was subcutaneously administered in an amount of 0.1 ml to the right hind paw of the rat, and the threshold value for pain was measured on both legs 30 min and 60 min after the administration of the aqueous solution. At the same time, a suspension of the compound of the present invention in a 2 % polysorbate 80 physiological saline (prepared by dissolving the compound of the present invention in polysorbate 80 in an amount of 2 % of the whole amount of the solution and gradually adding and mixing physiological saline therewith) was intravenously and orally administered, and the threshold value for pain of both legs was measured 15 min, 30 min, 60 min, 90 min and 120 min after the administration. The measurements were compared with the control group, and an increase in the threshold value for pain was regarded as an evidence for the analgesic activity.

In series [1] the test system is microvascular endothelial cells derived from human caul. As to the kind of experiment: Proliferation and migration of microvascular endothelial cells (Boyden chamber, EGF). It counts as cell-based. To be noted: Endothelial cell, 10 µM/ml compound, 10 ng/ml EGF, cells that came out into the lower chamber, read-out: percentage inhibition. The method, then:
5 x 10⁴ microvascular endothelial cells derived from human caul were placed in an upper chamber of a Boyden chamber, and 10 ng/ml of EGF was added as a control to a lower chamber separated from the upper chamber by means of a filter having a pore size of 5 µm (a polycarbonate filter manufactured by Nucleobore). 10 ng/ml of EGF and 10 µM/ml of the compound of the present invention were added to the drug administration group . The number of cells which had come out into the lower chamber was measured in terms of cells per HPF […].

A further series is described as follows: LD50 (acute toxicity). The settings on record: in vivo, mouse, 72 hr after administration, read-out: LD₅₀. The method, then: A suspension of the compound of the present invention in a 2 % polysorbate 80 physiological saline (prepared by dissolving the compound of the present invention in polysorbate 80 in an amount of 2 % of the whole amount of the solution and gradually adding and mixing physiological saline therewith) was intravenously and orally administered to a mouse, and 72 hr after the administration, the LD₅₀ was calculated based on whether the mouse had survived or was dead. In the calculation, the up-and-down method was used for the intravenous administration, while the Litchfield-Wilcoxon method was used for the oral administration.

Another series concerns the target cyclooxygenase. As to the kind of experiment: Cyclooxygenase inhibitory activity (PGE2 formation from [1-14C] arachidonic acid). The class given is biochemical. To be noted: microsome fraction of rabbit kidney medulla; 37°C, 15 min; PGE2 radioactivity; read-out: IC₅₀. The method, then: 60 ml of a 0.1 M phosphate buffer (pH: 7.5) containing 1 mM glutathione was added to 7.0 g of medulla of kidney of a rabbit, and the mixture was homogenized through the use of a polytron. The resultant homogenate was centrifuged at 9,000 x G for 20 min to obtain a microsome fraction. This fraction was dissolved in 7 ml of a 0.1 M phosphate buffer (pH: 7.5) containing 1 […] glutathione to give a cyclooxygenase enzyme preparation.
4 mM glutathione, 10 mM tryptophan, 0.25 µM hemoglobin (each in final concentration) and a phosphate buffer (pH: 7.5) were added to 15 µl of the enzyme preparation thus prepared, and [1-¹⁴C] arachidonic acid (5 x 10⁴ dpm) and the compound of the present invention were further added thereto in such a manner that the concentrations were 40 µM, 20 µM, 10 µM and 5 µM, respectively (total amount: […]). The mixture was incubated at 37°C for 15 min, and 1 N hydrochloric acid was added thereto to terminate the reaction. Prostaglandin E₂ (PGE₂) was added thereto as a carrier, and the reaction product was extracted with 2 ml of an ether. The resultant extract was concentrated and applied to thin layer chromatography (development solvent = chloroform : methanol : acetic acid = 18 : 1 : 1) to separate a product. […] The PGE₂ radioactivity was measured by means of a liquid scintillation counter.

Another series has as its target T1, 5-lipoxygenase (Rattus norvegicus, UniProt P12527).
T1 construct: endogenous in cells; host or cells: RBL-1 cells (sonicated, 105,000 x G supernatant)
T1 sequence (P12527 1-673): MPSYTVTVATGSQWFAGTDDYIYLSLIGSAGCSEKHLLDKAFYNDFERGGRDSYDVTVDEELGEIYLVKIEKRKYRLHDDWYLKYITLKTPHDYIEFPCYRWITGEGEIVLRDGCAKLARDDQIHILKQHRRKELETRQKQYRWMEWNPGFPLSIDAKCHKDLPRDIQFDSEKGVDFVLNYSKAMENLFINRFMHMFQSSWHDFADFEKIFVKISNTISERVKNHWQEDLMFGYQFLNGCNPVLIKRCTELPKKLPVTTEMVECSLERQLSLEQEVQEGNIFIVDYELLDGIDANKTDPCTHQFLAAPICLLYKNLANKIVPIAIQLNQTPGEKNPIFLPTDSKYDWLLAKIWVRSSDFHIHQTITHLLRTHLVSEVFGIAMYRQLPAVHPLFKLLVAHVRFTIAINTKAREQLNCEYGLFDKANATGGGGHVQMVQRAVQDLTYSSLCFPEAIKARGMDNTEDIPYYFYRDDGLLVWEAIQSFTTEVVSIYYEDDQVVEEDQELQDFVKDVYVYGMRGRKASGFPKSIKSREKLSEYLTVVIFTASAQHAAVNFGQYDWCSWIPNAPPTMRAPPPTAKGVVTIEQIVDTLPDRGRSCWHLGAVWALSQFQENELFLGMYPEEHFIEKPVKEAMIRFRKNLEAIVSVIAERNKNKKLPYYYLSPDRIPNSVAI
As to the kind of experiment: 5-Lipoxygenase inhibitory activity (5-HETE formation, HPLC). It counts as biochemical. To be noted: enzyme preparation from RBL-1 culture cells; 10 µM arachidonic acid; 37°C, 10 min; read-out: IC₅₀. The method, then:
RBL-1 culture cells were suspended in a 50 mM phosphate buffer (pH: 7.4) containing 1 mM ethylenediaminetetraacetic acid (EDTA) and 10 % ethylene glycol so that the concentration was 5 x 10⁶ cells/ml. The suspension was subjected to an ultrasonic treatment and centrifuged at 10,000 x G for 10 min and further at 105,000 x G for 60 min. The resultant supernatant was used as a 5-lipoxygenase enzyme preparation.
50 mM phosphate buffer, 15 mM calcium chloride, 20 µM indomethacin, 18 mM glutathione, 6 mM adenosine triphosphate (ATP), 10 µM arachidonic acid, the enzyme preparation prepared above and an ethanol solution of the compound of the present invention were placed in a test tube in such a manner that the whole quantity was 0.6 ml and the final concentration was 5 µM, 1 µM and 0.5 µM. A reaction was allowed to proceed at 37°C for 10 min. After the completion of the reaction, 1.2 ml of acetone and 100 µl of 2 N formic acid were added thereto to terminate the reaction. […] The resultant extract was concentrated and dissolved in methanol, and the content of […] in the solution was measured by means of high performance liquid chromatography [column = TSK-gel ODS-80 TM (manufactured by Tosoh Corporation); mobile phase = acetonitrile : water : acetic acid (60 : 40 : 0.02); flow rate = 1 ml/min; ultraviolet rays for detection = 235 nm]. […]

The test system of series [2] is platelet-rich plasma (PRP). As to the kind of experiment: Platelet aggregation inhibition test (Born method, in vitro). The settings on record: Rattus norvegicus; for inhibition at 5 µM: compound 5 µM; for inhibition at 20 µM: compound 20 µM. The class given is cell-based. The method, then: Blood was collected from a rat subjected to fasting for 12 hr so that the volume of 3.8 % sodium citrate became 1/10. The collected blood was centrifuged at room temperature and 159 x G for 10 min to collect a platelet-rich plasma (PRP). The remaining blood was centrifuged at room temperature and 1800 x G for 10 min to collect PPP (platelet poor plasma). The number of platelets was measured by means of PC-603A manufactured by Erma and adjusted to 3 x 10⁸/ml with PPP. The aggregation capability was measured according to the Born method with the concentration of PRP being 0 % (PPP) and 100 % […] through the use of a 4 channel NKK HEMATRACER aggregation meter. In an in vitro test, the novel allyl alcohol derivative was added in a concentration of 5 µM or 20 µM, the mixture was pre-incubated at 37°C for 3 min. An aggregation inducer was added thereto, and the aggregation capability was measured. Adenine diphosphate (ADP), collagen, epinephrine and arachidonic acid were used as the aggregation inducer. The concentration of the aggregation inducer was 2 µM for ADP, 1 µg/ml for collagen, 400 µM for arachidonic acid and 6 µg/ml of epinephrine. The novel ally] alcohol derivative was applied to the experiment after dissolution in dimethylsulfoxide (DMSO). The final concentration of DMSO thereof was 0.4 %, the addition of DMSO alone in this concentration had no clear effect on the aggregation of the platelet.

The next series has as its system ICR mouse. As to the kind of experiment: Arachidonic acid ear lobe edema inhibiting test. The settings on record: 1 mg per 20 µl acetone applied to auricle; 2 mg arachidonic acid 30 min later; ear thickness after one hour; versus control. The class given is in vivo. The method, then:
1 mg of the novel allyl alcohol derivative per 20 µl of acetone were applied to the auricle on the inside of the right of an ICR mouse (female, 8 - 11 weeks old). 30 min after the application, 10 µl of an acetone solution containing 2 mg of arachidonic acid was applied to the same site, and one hour after the application of the acetone solution, the thickness of the ear was measured by means of a dial thickness gauge. An equal weight of acetone was applied to the auricle on the left side, and measurement was conducted in the same manner as that described above, and […] was regarded as swelling of the ear. Further, a group wherein the solvent was applied instead of the sample was used as a control, and the ear lobe edema inhibition was determined by the following equation. [formula]

[3] abbreviates: 140 mg/kg, 15 min after administration, control 123.
Where [4] appears, read: 140 mg/kg, 30 min after administration, control 115.
[5] abbreviates: 140 mg/kg, 60 min after administration, control 108.
[6] abbreviates: inducer arachidonic acid 400 µM.

One may read the inhibition as the share of the control response that was lost under treatment. The compound `CCCCC/C=C/C(O)CCc1ccc(O)c(OC)c1` (stereo not shown) [compound of the present invention] had a growth inhibition with balb/c 3T3 cells of 72.9%. For the same compound, the “Threshold value for pain (g)” value in the series on rat (70 mg/kg, 15 min after administration, control 123) was 153^a g; in the series on rat (70 mg/kg, 30 min after administration, control 115), 183^b g; in the series with rat (70 mg/kg, 60 min after administration, control 108), 142^a g; with rat (setting [3]), 190^b g; with rat (setting [4]), 222^b g; in the series with rat (setting [5]), 210^b g. In addition, the “threshold value for pain as compared with the control group” value with rat (dose of 5 mg/kg, within 15 to 60 min, p < 0.05) is recorded as “significant increase”. Also, the inhibition at 10 µM in series [1] worked out at 82%. Besides, the LD50 at 72 hr in “LD50 (acute toxicity)” (Intravenous, up-and-down method) was 75.6 mg/kg; in the series “LD50 (acute toxicity)” (Oral, Litchfield-Wilcoxon method), 1340 mg/kg. Also, the IC50 worked out at 7.62 µM on cyclooxygenase and 0.54 µM on 5-lipoxygenase. Besides, the inhibition at 5 µM amounted to 12% in series [2] (inducer ADP 2 µM), 67% in series [2] (setting [6]), 21% in series [2] (inducer collagen 1 µg/ml) and 52% in series [2] (inducer epinephrine 6 µg/ml). Besides, the inhibition at 20 µM in series [2] (inducer ADP 2 µM) is 26%; in series [2] (setting [6]), 96%; in series [2] (inducer collagen 1 µg/ml) it was 43%; in series [2] (inducer epinephrine 6 µg/ml), 63%. In the series with ICR mouse, this compound displayed an edema inhibition of 83%.
For the compound `Cc1c(N(C)C)c(=O)n(-c2ccccc2)n1C` [Aminopyrine, reference compound], the results for the “Threshold value for pain (g)” value in the series on rat (setting [3]), in the series with rat (setting [4]) and in the series on rat (setting [5]) were 190^b g, 235^b g and 212^b g, respectively.
